These results are taken from patent publication US9724383B2, “Stabilized trimeric HIV-1 GP41 fusion inhibitor polypeptides comprising the N-terminal heptad repeat (NHR) and foldon (FD) trimerization motif” (New York Blood Center, Inc., priority 2009, dated 2017).

Entries after “also recorded” stand apart in the source; their conditions may differ. Read-outs that look alike come from different tables or passages of the source. Peptide text beside a SMILES is read from it.

Data set [1] has as its system HIV-1 Bal (subtype B, R5). It counts as cell-based. Here is the method:
The cells were harvested and lysed on the fourth day post-infection with 50p1 of lysing reagent. The luciferase activity was analyzed using a luciferase kit (Promega, Madison, Wis.) and a luminometer (Ultra 386) according to the manufacturer's instructions. The percent inhibition of luciferase activity was calculated.

The target in a further data set is T1, Proteinase K (Parengyodontium album, UniProt P06873).
T1 construct: purchased Sigma
The data set can be described thus: Proteinase K digestion, residual peptide by direct ELISA. It counts as in vitro ADME. The following applies: 1 μU/ml Proteinase K in PBS, 37° C. The text has this: T20 was used as a control. […] Samples were collected at different times and centrifuged immediately.
(In general: ELISA stands for enzyme-linked immunosorbent assay.)

In data set [2] the test system is HIV-1IIIB (subtype B, X4). Here is the method:
(§1) In brief, 1×10^4 MT-2 cells were infected with HIV-1IIIB in 200 μl RPMI 1640 medium containing 10% FBS in the presence or absence of testing compounds at graded concentrations overnight. Then the culture supernatants were removed and fresh media containing no testing compounds were added. On the fourth day post-infection, 100 μl of culture supernatants were collected from each well, mixed with equal volumes of 5% Triton X-100 and assayed for p24 antigen, which was quantitated by ELISA. Briefly, wells of polystyrene plates (Immulon 1B, Dynex Technology, Chantilly, Va.) were coated with HIV immunoglobulin (HIVIG), which was prepared from plasma of HIV-seropositive donors with high neutralizing titers against HIV-1IIIB, in 0.085 M carbonate-bicarbonate buffer (pH 9.6) at 4° C. overnight, followed by washes with washing buffer (0.01M PBS containing 0.05% Tween-20) and blocking with PBS containing 1% dry fat-free milk (Bio-Rad Inc., Hercules, Calif.). Virus lysates were added to the wells and incubated at 37° C. for 1 h. […] Reactions were terminated by addition of 1N H2SO4. Absorbance at 450 nm was recorded in an ELISA reader (Ultra 386, TECAN, Research Triangle Park, NC). Recombinant protein p24 purchased from US Biological (Swampscott, Mass.) was included for establishing standard dose response curves. […] The percentage of inhibition of p24 production was calculated as previously described.

Data set [3] deals with HIV-1IIIB-mediated cell-cell fusion. Here is the method:
Briefly, H9/HIV-1IIIB cells were pre-labeled with a fluorescent dye, Calcein AM (Molecular Probes, Inc., Eugene, Oreg.), and incubated with a testing compound at a graded concentration at 37° C. for 30 min in a 96-well cell culture plate. Then the CD4^+ MT-2 cells were added to the H9/HIV-1IIIB cells at a ratio of 10:1, followed by incubation at 37° C. for 2 hrs. The fused and unfused Calcein-labeled HIV-1-infected cells were counted under an inverted fluorescence microscope (Zeiss, Germany) with an eyepiece micrometer disc. The percent inhibition of cell fusion by a compound and the EC50 and EC90 values were calculated using the software CalcuSyn.

The test system of data set [4] is HIV-1NL4-3(36G) V38A/N42D. Particulars: T20-resistant. Here is the method:
(§2) In brief, 1×10^4 MT-2 cells were infected with HIV-1IIIB in 200 μl RPMI 1640 medium containing 10% FBS in the presence or absence of testing compounds at graded concentrations overnight. Then the culture supernatants were removed and fresh media containing no testing compounds were added. On the fourth day post-infection, 100 μl of culture supernatants were collected from each well, mixed with equal volumes of 5% Triton X-100 and assayed for p24 antigen, which was quantitated by ELISA. Briefly, wells of polystyrene plates (Immulon 1B, Dynex Technology, Chantilly, Va.) were coated with HIV immunoglobulin (HIVIG), which was prepared from plasma of HIV-seropositive donors with high neutralizing titers against HIV-1IIIB, in 0.085 M carbonate-bicarbonate buffer (pH 9.6) at 4° C. overnight, followed by washes with washing buffer (0.01M PBS containing 0.05% Tween-20) and blocking with PBS containing 1% dry fat-free milk (Bio-Rad Inc., Hercules, Calif.). Virus lysates were added to the wells and incubated at 37° C. for 1 h. […] Reactions were terminated by addition of 1N H2SO4. Absorbance at 450 nm was recorded in an ELISA reader (Ultra 386, TECAN, Research Triangle Park, NC). Recombinant protein p24 purchased from US Biological (Swampscott, Mass.) was included for establishing standard dose response curves. Each sample was tested in triplicate. The percentage of inhibition of p24 production was calculated as previously described.
(§3) Mutations in the NHR region of HIV-1 virus NL4-3 cause genetic resistance to T20.

The subject of data set [5] is HIV-1NL4-3(36G) N42T/N43K. The following applies: T20-resistant. Here is the method:
as §2, §3

The test system of data set [6] is HIV-1NL4-3(36G) V38E/N42S. The following applies: T20-resistant. Here is the method:
as §2, §3

The next data set concerns HIV-1NL4-3(36G) N42S. The following applies: T20-sensitive. Here is the method: as §2, §3
The subject of the next data set is HIV-1IIIB. The data set can be described thus: Proteinase K digestion, remaining antiviral activity against HIV-1IIIB infection. Particulars: 1 μU/ml Proteinase K in PBS, 37° C., 3 hrs. Here is the method:
as §1

Data set [7] relates to HIV-1 93IN101 (subtype C, R5). It counts as cell-based. Here is the method:
For inhibition of infection by the primary HIV-1 isolate 93IN101 (subtype C, R5), the peripheral blood mononuclear cells (PBMCs) were isolated from the blood of healthy donors using a standard density gradient (Histopaque-1077, Sigma) centrifugation. After incubation at 37° C. for 2 h, the nonadherent cells were collected and resuspended at 5×10^5/ml in RPMI medium 1640 containing 10% FBS, 5 μg of phytohemagglutinin (PHA)/ml, and 100 U of interleukin-2/ml, followed by incubation at 37° C. for 3 days. The PHA-stimulated cells were infected with the primary HIV-1 isolate at a multiplicity of infection (MOI) of 0.01 in the absence or presence of N-Fd peptides at graded concentrations. The supernatants were collected on the 7th day post-infection and tested for p24 antigen by ELISA.

A short description of data set [8]: CD spectroscopy of secondary structure (α-helicity) of the individual peptides. The following applies: CD at 222 nm, 10 μM, ddH2O pH 7.0; spectrum of free Fd subtracted. It counts as physicochemical. Here is the method:
(§4) All the N-peptides were diluted in ddH2O (pH 7.0) and all the C-peptides or the mixture of the N- and C-peptides were diluted in 50 mM sodium phosphate and 150 mM NaCl (PBS, pH 7.2) to a final concentration of 10 μM. The individual peptides and their mixtures were incubated in a 37° C. water bath for 0.5 h before testing. […] The α-helicity was calculated from the CD signal by dividing the mean residue ellipticity at 222 nm by the value expected for 100% helix formation (i.e., 33,000° cm^2 dmol^−1) according to previous studies. Thermal denaturation of the samples was monitored at 222 nm by applying a temperature gradient from 20° C. to 98° C. with a 2-degree interval, an equilibration time of 1.5 min, and an averaging time of 60 s. The midpoint of the thermal unfolding transition (Tm) values was calculated using Jasco software utilities as described previously.

Data set [9] is described as follows: SDS-PAGE analysis of trimer stability. It counts as physicochemical. Particulars: 2% SDS sample buffer, room temperature or boiled 5 min. Here is the method: Purified N36Fd and N28Fd were analyzed by SDS-PAGE. […] The sample was boiled for 5 min or kept at room temperature (RT) before loading onto a 10-20% Tricine-Glycine gel (Invitrogen). The electrophoresis was conducted in SDS-PAGE running buffer with 125V constant voltage at 4° C. The gels were stained with SimplyBlue SafeStain (Invitrogen).

The target in another data set is CHR-peptide C34 (Human immunodeficiency virus type 1 group M subtype B, UniProt P04578). It counts as binding, HIV-1. The following applies: CD spectroscopy. Here is the method: as §4
Another data set relates to HIV-1-mediated fusion. Particulars: background statement; cited from earlier work.

T1 sequence (P06873 106-384): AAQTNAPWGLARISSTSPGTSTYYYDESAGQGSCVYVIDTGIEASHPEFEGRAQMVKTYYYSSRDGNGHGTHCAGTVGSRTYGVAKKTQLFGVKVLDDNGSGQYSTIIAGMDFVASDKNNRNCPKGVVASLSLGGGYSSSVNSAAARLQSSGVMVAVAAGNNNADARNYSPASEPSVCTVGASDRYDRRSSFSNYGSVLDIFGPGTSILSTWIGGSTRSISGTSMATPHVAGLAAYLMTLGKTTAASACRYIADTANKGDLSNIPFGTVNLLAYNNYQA
Sequence of CHR-peptide C34 (P04578 628-661): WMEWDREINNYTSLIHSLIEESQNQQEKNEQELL

As usually defined, the IC50 is the concentration at which inhibition is half-maximal. “IEAQQHLLQLTVWGIKQLQARILAVERYGYIPEAPRDGQAYVRKDGEWVLLSTFL [N28Fd]”: the IC50 is 0.0098 µM in [1] (TZM-bl cells, luciferase, read-out: IC50 against infection by HIV-1 Bal); 0.039 µM in data set [2] (read-out: IC50, inhibition of HIV-1IIIB replication (p24), MT-2 cells, day 4 post-infection); 0.021 µM in data set [3] (read-out: IC50, inhibition of HIV-1-induced cell-cell fusion, H9/HIV-1IIIB + MT-2 cells, 2 hrs); 0.029 ± 0.00082 µM in [4]; 0.0306 ± 0.00607 µM in data set [5]; 0.0464 ± 0.00449 µM in data set [6]. Also, the IC50 turned out to be 0.02695 ± 2e-05 µM with HIV-1NL4-3(36G) N42S and 0.00127 µM in data set [7] (PHA-stimulated PBMCs, p24 on day 7, read-out: IC50 against infection by HIV-1 93IN101). In addition, the “residual amount, % of original, detected by ELISA” value with Proteinase K (3 hrs) is 84%. Also, the “fold more potent than the free N-peptide in inhibiting cell-cell fusion” value in data set [3] (N36Fd vs N36, N28Fd vs N28) was greater than 138 fold. Further, the “remaining antiviral activity against HIV-1IIIB infection, % of original” value in the data set on HIV-1IIIB is recorded as 97%. Besides, in data set [8], the “α-helicity of the N36 or N28 portion in N36Fd or N28Fd” value was 30.9%. Further, in data set [9], the “trimer stability in SDS-PAGE” value is “SDS-resistant but heat-sensitive trimer; also recorded: more stable than N36Fd under SDS conditions”.

The compound `CC[C@H](C)[C@H](N)C(=O)N[C@@H](CCC(=O)O)C(=O)N[C@@H](C)C(=O)N[C@@H](CCC(N)=O)C(=O)N[C@@H](CCC(N)=O)C(=O)N[C@@H](Cc1c[nH]cn1)C(=O)N[C@@H](CC(C)C)C(=O)N[C@@H](CC(C)C)C(=O)N[C@@H](CCC(N)=O)C(=O)N[C@@H](CC(C)C)C(=O)N[C@H](C(=O)N[C@H](C(=O)N[C@@H](Cc1c[nH]c2ccccc12)C(=O)NCC(=O)N[C@H](C(=O)N[C@@H](CCCCN)C(=O)N[C@@H](CCC(N)=O)C(=O)N[C@@H](CC(C)C)C(=O)N[C@@H](CCC(N)=O)C(=O)N[C@@H](C)C(=O)N[C@@H](CCCNC(=N)N)C(=O)N[C@H](C(=O)N[C@@H](CC(C)C)C(=O)N[C@@H](C)C(=O)N[C@H](C(=O)N[C@@H](CCC(=O)O)C(=O)N[C@@H](CCCNC(=N)N)C(=O)N[C@@H](Cc1ccc(O)cc1)C(=O)O)C(C)C)[C@@H](C)CC)[C@@H](C)CC)C(C)C)[C@@H](C)O` [N28] (H-IEAQQHLLQLTVWGIKQLQARILAVERY-OH; N-terminus and C-terminus assumed) returned a half-inhibitory concentration (IC50) in data set [2] (1IIIB (subtype B, X4)) greater than 3 µM. Moreover, the “complex formation with C34” value on CHR-peptide C34 was “could not form a complex with C34”.

Consider enfuvirtide, for which the IC50 in data set [1] (Bal (subtype B, R5)) stood at 0.0034 µM; in data set [4] it was 2.3 µM; in [5] it was 0.374 µM; in [6], 1.39 µM; with HIV-1NL4-3(36G) N42S, 0.03 µM; in data set [7] (93IN101 (subtype C, R5, 2 h)) it was 0.00175 µM. Also, the remaining at 3 h at Proteinase K (read-out: residual amount, % of original, detected by ELISA) was 17%. For the same compound, in the data set on HIV-1-mediated fusion, the “inhibition of HIV-1-mediated fusion” value is reported as “low nanomolar level”. Further, in the data set on HIV-1IIIB, the “remaining antiviral activity against HIV-1IIIB infection, % of original” value is listed as “completely lost its anti-HIV-1 activity”.
